Data as given in patent US20220017833A1, “Methods and Compositions for Scavenging Sulfides from Hydrocarbon Fluids and Aqueous Streams” (Nexgen Oilfield Chemicals, LLC, priority 2019, published 2022).

Experiments:
[1] = octanol-water partition logarithm; source not stated; cited from earlier work
[2] = Solution Homogeneity Test; format: physicochemical; details: Table 6, GID, water and alcohols, % composition
Description: In one aspect, as two-phase reaction products are problematic, scavenger system homogeneity is desired. The two phases could be emulsified or otherwise finely dispersed, but in practice, even fine, seemingly stable dispersions eventually separate or stratify in extended storage or critical use and are not robust enough for practical use. They are not allowed, for example, to be fed through capillaries for fear of plugging them. In this pass/fail test, a sample is held up for visual inspection in a backlit clear vial. A clear, single-phase, homogeneous solution is a pass. Anything else is a fail.

[3] = Short Reaction Time Capacity Test; details: for contribution to the BT capacity (coefficient of best fit equation) / contribution to the FD capacity (coefficient of best fit equation): Short Reaction Time Capacity Test, Table 2 compositions
Description: (§1) Referring now to FIG. 1, therein is schematically depicted a sulfide scavenger testing system 100 comprising a gas source 2, a flow regulator 4, gas treatment vessel 6, and a sulfide measurement device 8. In one testing embodiment, gas (not shown) is flowed from gas source 2 via gas feed piping 10 into flow regulator 4, which regulates gas flow to gas treatment vessel 6 via regulated gas feed piping 12. The regulated gas flows into gas treatment vessel 6 via a bottom inlet 14 thereof, where it comes into contact with a volume of liquid 16 comprising a sulfide scavenger system (not separately labeled). The gas, having been treated by the liquid, flows out of a top end 18 of gas treatment vessel 6 and flows into sulfide measurement device 8 via treated gas outlet piping 20.
In one embodiment, gas flow from the flow regulator 4 is controlled such that the gas is flowed into the gas treatment vessel 6 at a flow rate of 100 mL/min. up to 500 mL/min. In one embodiment, a gas sparging device, such as a fine pore frit (not shown), is utilized to better distribute the gas into the scavenger liquid. In one embodiment, the gas treatment vessel 6 contains about 20 g of a liquid H2S scavenger, such as one or more diaminols/diaminacetals in a chemical system as described above. In one aspect, to the extent possible, H2S and/or CO2 are scavenged from the gas by the scavenger and the treated (“sweet”) gas exits top end 18 of treatment vessel 6. In one embodiment, sulfide measurement device 8 monitors the concentration of H2S leaving treatment vessel 6. in the gas phase. In other embodiments (not shown), a CO2 measurement device may be similarly employed to monitor the concentration of CO2 leaving treatment vessel 6 in the gas phase.
(§2) In one embodiment, gas is flowed through sulfide scavenger testing system 100 until the outlet H2S concentration reaches a 4,000 ppm target, at which point the test is concluded. This relative time duration before the target is reached is used to compare H2S scavenger capacity given the kinetics of each sulfide scavenger system. The longer the duration, the better the capacity.
(§3) The fine bubbles produced rise slowly, providing plenty of time, plenty of surface area, and a short path through which the H2S must diffuse to the scavenger in the liquid 16. Detector 8 on the outlet line 20 is used to measure H2S concentration in the exiting gas. The times to first detection (FD), at a threshold of 15 ppm, and to complete breakthrough (BT), at the detector saturation of 4000 ppm (0.4%), are recorded. This test is designed to measure the effective scavenging capacity in applications with long contact times.
This test is the same as the Long Reaction Time Capacity Test, but without the gas sparging device, so as to produce larger bubbles, and at a higher feed rate of 200 mL/min, after the first 8 minutes at 100 mL/min. The larger bubbles rise quickly through the liquid 16, providing little time, little surface area, and a long path through which the H2S must diffuse to the scavenger in the liquid. This test is designed to measure the effective scavenging capacity in applications with short contact times. It is far more reaction rate dependent than the Long Reaction Time Capacity and so is a more critical and differentiating test.
With triazine, one H2S reacts twice with the same molecule of triazine, replacing one amine, so the rate is “first order”, meaning proportional to the concentration of triazine.

[4] = Long Reaction Time Capacity Test
Description: as §1
In one embodiment, the gas contained in gas source 2 consists substantially of about 15% H2S, and about 3% CO2, with the remainder being Methane. In one embodiment, gas flow from the flow regulator 4 is controlled such that the gas is flowed into the gas treatment vessel 6 at a flow rate of 100 mL/min. up to 500 mL/min. In one embodiment, a gas sparging device, such as a fine pore frit (not shown), is utilized to better distribute the gas into the scavenger liquid. In one embodiment, the gas treatment vessel 6 contains about 20 g of a liquid H2S scavenger, such as one or more diaminols/diaminacetals in a chemical system as described above. In one aspect, to the extent possible, H2S and/or CO2 are scavenged from the gas by the scavenger and the treated (“sweet”) gas exits top end 18 of treatment vessel 6. In one embodiment, sulfide measurement device 8 monitors the concentration of H2S leaving treatment vessel 6. in the gas phase. In other embodiments (not shown), a CO2 measurement device may be similarly employed to monitor the concentration of CO2 leaving treatment vessel 6 in the gas phase.
as §2
as §3, with “In this test, methane containing 15% H2S and 3% CO2 by weight is sparged via a fine pore frit (not shown) at 100 mL/min through a column of 20 g of scavenger solution (See FIG. 1). The fine” for “The fine”
Note that the true total capacity of a scavenger with infinite time to react is simply equal to the stoichiometry of the reaction—the moles of H2S consumable per mole of scavenging molecule, which can be calculated. This Long Reaction Time Capacity measurement falls short of that ultimate stoichiometric capacity and so is still reaction rate dependent, just less so than the Short Reaction Time Capacity Test.

[5] = 20 g test, Eq/test Triazine 0.068, GIDAc 0.157, GIDA 0.076 (7.50 g MeOH, 2.50 g BuOH)
[6] = 20 g test, Triazine 7.50 g + 12.50 g water, GIDAc 11.00 g as GID, 6.00 g MeOH, 3.00 g BuOH, GIDA 6.68 g as GID, 3.32 g water, 7.50 g MeOH, 2.50 g BuOH
[7] = 20 g test, Eq/test Triazine 0.068, GIDAc 0.185, GIDA 0.076
[8] = 20 g test, Triazine 7.50 g + 12.50 g water, GIDAc 13.00 g as GID + 7.00 g MeOH, GIDA 6.68 g as GID, 3.32 g water, 8.00 g MeOH, 2.00 g BuOH

## CCCCC(CC)CO (stereo not shown) [2EHOH, 2-Ethylhexanol]
[1]
  LogP: 2.8

## OCCOCCO [DEG, Diethylene Glycol]
[1]
  LogP: −1.5
[2]
  Solution Homogeneity: Fail
[2]; listed as diethylene glycol
  Solution Homogeneity: do not work

## OCCO [EG, Ethylene Glycol]
[1]
  LogP: −1.7
[2]
  Solution Homogeneity: Fail
[2]; listed as Ethylene glycol
  Solution Homogeneity: do not work

## CC(C)N=CC=NC(C)C [GID, N,N′-di(propan-2-yl)ethane-1,2-diimine]
[3]
  contribution to the BT capacity (coefficient of best fit equation): 102 minutes per equivalent
  contribution to the FD capacity (coefficient of best fit equation): 92 minutes per equivalent
[1]
  LogP: 2.3

## O [H2O, Water]
[1]
  LogP: −1.4

## CC(=O)CC(C)C [MIBK, methyl isobutyl ketone]
[3]
  contribution to the BT capacity (coefficient of best fit equation): 601 minutes per equivalent
  contribution to the FD capacity (coefficient of best fit equation): 515 minutes per equivalent

## CO [MeOH, Methanol]
[1]
  LogP: −0.7

## CC(O)CO (stereo not shown) [PG, Propylene Glycol]
[1]
  LogP: −1.3

## OCCN1CN(CCO)CN(CCO)C1 [Triazine, reference compound]
[3]; [5]
  Min/Eq BT: 380 Min/Eq
  Min/Eq FD: 365 Min/Eq
[3]; [6]
  Min to BT: 26 min
  Min to FD: 25 min
[3]; Graph 1 (FIG. 3)
  molar capacity at short reaction times (comparison, accounting for molar concentration): lower molar capacity at short reaction times
[4]; [7]
  Min/Eq BT: 994 Min/Eq
  Min/Eq FD: 965 Min/Eq
[4]; [8]
  Min to BT: 68 min
  Min to FD: 66 min
[4]; Graph 1 (FIG. 3)
  molar capacity at long reaction times (comparison, accounting for molar concentration): greater molar capacity than GIDAc at long reaction times

## CCCCCCCO [n-C7OH, n-Heptanol]
[1]
  LogP: 2.5

## CCCCCCCCO [n-C8OH, n-Octanol]
[1]
  LogP: 3.0

## Hexylene Glycol [HG]
[1]
  LogP: 0.0
